Data reported in patent US8426422B2, “Apoptosis-inducing agents for the treatment of cancer and immune and autoimmune diseases” (Abbvie Inc., priority 2009, dated 2013).

Biological target: GST-Bcl-2 (Homo sapiens, UniProt P10415)
Test: Time Resolved-Fluorescence Resonance Energy Transfer (TR-FRET) Bcl-2 binding assay
Details: GST-Bcl-2 1 nM, F-Bak peptide probe 100 nM, Tb-anti-GST 1 nM; 3 hours at room temperature; Ki by Wang's equation
Experimental: Determination of the utility of compounds having Formula (I) as binders to and inhibitors of anti-apoptotic Bcl-2 proteins was performed using the Time Resolved-Fluorescence Resonance Energy Transfer (TR-FRET) Assay. Tb-anti-GST antibody was purchased from Invitrogen (Catalog No. PV4216).
Representative compounds were serially diluted in dimethyl sulfoxide (DMSO) starting at 50 μM (2x starting concentration; 10% DMSO) and 10 μL were transferred into a 384-well plate. The samples are then mixed on a shaker for 1 minute and incubated for an additional 3 hours at room temperature. For each assay, the probe/antibody and protein/probe/antibody were included on each assay plate as negative and positive controls, respectively. Fluorescence was measured on the ENVISION plate reader (Perkin Elmer) using a 340/35 nm excitation filter and 520/525 (F-Bak peptide) and 495/510 nm (Tb-labeled […] antibody) emission filters. Inhibition constants (Ki) are shown in TABLE 2 below and were determined using Wang's equation (Wang Z.-X. An Exact Mathematical Expression For Describing Competitive Binding Of Two Different Ligands To A Protein Molecule. FEBS Lett. 1995, 360:111-4).
The inhibition constant (Ki) is the dissociation constant of an enzyme-inhibitor complex or a protein/small molecule complex, wherein the small molecule is inhibiting binding of one protein to another protein. So a large Ki value indicates a low binding affinity and a small Ki value indicates a high binding affinity.
The compounds are therefore expected to have utility in treatment of diseases during which anti-apoptotic Bcl-2 protein is expressed.

Chain of GST-Bcl-2 (P10415 whole entry): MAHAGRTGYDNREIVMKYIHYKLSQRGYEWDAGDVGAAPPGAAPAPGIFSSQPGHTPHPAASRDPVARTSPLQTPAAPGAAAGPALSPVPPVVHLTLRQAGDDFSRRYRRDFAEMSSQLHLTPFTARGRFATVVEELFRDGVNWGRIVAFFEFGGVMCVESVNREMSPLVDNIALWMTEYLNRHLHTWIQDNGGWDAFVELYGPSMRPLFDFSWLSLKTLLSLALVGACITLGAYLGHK

Row | SMILES | Ki [nM]
1 | O=C(NS(=O)(=O)c1cccc([N+](=O)[O-])c1)c1ccc(N2CCN(Cc3ccccc3-c3ccc(Cl)cc3)CC2)cc1 [Example 5, 4-{4-[(4′-chloro-1,1′-biphenyl-2-yl)methyl]piperazin-1-yl}-N-[(3-nitrophenyl)sulfonyl]benzamide] | 185
2 | O=C(NS(=O)(=O)c1ccccc1)c1ccc(N2CCN(Cc3ccccc3-c3ccc(Cl)cc3)CC2)cc1 [Example 6, 4-{4-[(4′-chloro-1,1′-biphenyl-2-yl)methyl]piperazin-1-yl}-N-(phenylsulfonyl)benzamide] | 212
3 | O=C(NS(=O)(=O)c1cccc([N+](=O)[O-])c1)c1ccc(N2CCN(Cc3ccccc3-c3ccc(Cl)cc3)CC2)cc1OCCc1ccccc1 [Example 8, 4-{4-[(4′-chloro-1,1′-biphenyl-2-yl)methyl]piperazin-1-yl}-N-[(3-nitrophenyl)sulfonyl]-2-(2-phenylethoxy)benzamide] | 975
4 | O=C(NS(=O)(=O)c1cccc([N+](=O)[O-])c1)c1ccc(N2CCN(Cc3ccccc3-c3ccc(Cl)cc3)CC2)cc1Oc1ccccc1 [Example 9, 4-{4-[(4′-chloro-1,1′-biphenyl-2-yl)methyl]piperazin-1-yl}-N-[(3-nitrophenyl)sulfonyl]-2-phenoxybenzamide] | 26.5
5 | O=C(NS(=O)(=O)c1ccc(Br)cc1)c1ccc(N2CCN(Cc3ccccc3-c3ccc(Cl)cc3)CC2)cc1 [Example 11, N-[(4-bromophenyl)sulfonyl]-4-{4-[(4′-chloro-1,1′-biphenyl-2-yl)methyl]piperazin-1-yl}benzamide] | 208
6 | O=C(NS(=O)(=O)c1cccc([N+](=O)[O-])c1)c1ccc(N2CCN(Cc3ccccc3-c3ccc(Cl)cc3)CC2)cc1Sc1ccccc1 [Example 13, 4-{4-[(4′-chloro-1,1′-biphenyl-2-yl)methyl]piperazin-1-yl}-N-[(3-nitrophenyl)sulfonyl]-2-(phenylthio)benzamide] | 72.9
7 | O=C(NS(=O)(=O)c1cccc([N+](=O)[O-])c1)c1ccc(N2CCN(Cc3ccccc3-c3ccc(Cl)cc3)CC2)cc1NCc1ccccc1 [Example 14, 2-(benzylamino)-4-{4-[(4′-chloro-1,1′-biphenyl-2-yl)methyl]piperazin-1-yl}-N-[(3-nitrophenyl)sulfonyl]benzamide] | 749
8 | O=C(NS(=O)(=O)c1cccc([N+](=O)[O-])c1)c1ccc(N2CCN(Cc3ccccc3-c3ccc(Cl)cc3)CC2)cc1Cc1ccccc1 [Example 15, 2-benzyl-4-{4-[(4′-chloro-1,1′-biphenyl-2-yl)methyl]piperazin-1-yl}-N-[(3-nitrophenyl)sulfonyl]benzamide] | 48
9 | O=C(NS(=O)(=O)c1ccc([N+](=O)[O-])cc1)c1ccc(N2CCN(Cc3ccccc3-c3ccc(Cl)cc3)CC2)cc1 [Example 16, 4-{4-[(4′-chloro-1,1′-biphenyl-2-yl)methyl]piperazin-1-yl}-N-[(4-nitrophenyl)sulfonyl]benzamide] | 273
10 | O=C(NS(=O)(=O)c1cccc([N+](=O)[O-])c1)c1ccc(N2CCN(Cc3ccccc3-c3ccc(Cl)cc3)CC2)cc1CCc1ccccc1 [Example 18, 4-{4-[(4′-chloro-1,1′-biphenyl-2-yl)methyl]piperazin-1-yl}-N-[(3-nitrophenyl)sulfonyl]-2-(2-phenylethyl)benzamide] | 746
11 | O=C(NS(=O)(=O)c1ccc(F)cc1)c1ccc(N2CCN(Cc3ccccc3-c3ccc(Cl)cc3)CC2)cc1 [Example 19, 4-{4-[(4′-chloro-1,1′-biphenyl-2-yl)methyl]piperazin-1-yl}-N-[(4-fluorophenyl)sulfonyl]benzamide] | 403
12 | O=C(NS(=O)(=O)c1cccc(F)c1)c1ccc(N2CCN(Cc3ccccc3-c3ccc(Cl)cc3)CC2)cc1 [Example 20, 4-{4-[(4′-chloro-1,1′-biphenyl-2-yl)methyl]piperazin-1-yl}-N-[(3-fluorophenyl)sulfonyl]benzamide] | 280
